The structures appear in SMILES notation.

Data on 59 molecules can be found in the METLIN SMRT retention time set (Domingo-Almenara et al. 2019).

A short description of this data set: gradient 5% acetonitrile 3 min, to 50% in 2 min, to 85% in 15 min, held 3 min, 100 µL/min. As to conditions: column: Zorbax Extend-C18 2.1 x 50 mm; eluents: water / acetonitrile, 0.1% formic acid. In short, it runs like this: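 Over 3 months, pure standards in mixtures of ~100 molecules were run by HPLC coupled to a quadrupole time-of-flight mass spectrometer in positive and negative ionization mode. The column was a Zorbax Extend-C18 (2.1 × 50 mm, 1.8 μm) at 100 μL/min, eluted with water and acetonitrile each holding 0.1% formic acid, with 40 μL dead and 900 μL dwell volumes. Retention time was determined from adduct peaks chosen by software and checked manually.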
Regarding `CCOCCCNC(=O)C1(C)Cn2c(ccc2-c2ccco2)C(=O)N1c1ccc(OC)cc1` (centres undefined), the RP-LC retention time was 791 s. In the case of `O=C(c1ccc(OCC2CCN(C(=O)C3CCCC3)CC2)cc1)N1CCOCC1` it was 764 s; in that of `Cc1cccc(-c2noc(Cn3ccn(-c4ccccc4C)c(=O)c3=O)n2)c1`, 865 s. For `CC(C)N1C(=O)c2cccnc2Sc2cc(NC(=O)C3CCOC3)ccc21` (centres undefined) the value was 680 s; for `CC(C)CN1C(=O)c2ccccc2C(C(=O)NCc2ccccn2)C1c1cccs1` (centres undefined), 632 s; for `Nc1c2c(nc3c1CCC3)CCCC2`, 624 s. Consider `COC(=O)C1=C(C)NC(SCC(=O)NC2CCCCC2)=C(C#N)C1c1ccccc1F` (centres undefined), for which the RP-LC retention time came out at 1020 s. Regarding `Cc1cccc(S(=O)(=O)N2CC(F)(F)C[C@H]2CN2CCc3ccccc3C2)c1`, the RP-LC retention time came to 773 s. For `Cc1cccc(-c2nc(Cn3nnc(C(=O)NCc4cccc(Br)c4)c3C)c(C)o2)c1` the value was 1210 s; for `CCC(=O)N(C1CCOCC1)C1CCN(S(=O)(=O)c2ccc(F)c(F)c2)CC1`, 856 s; for `CCN1CCn2cc(S(=O)(=O)Nc3cc(C)ccc3F)cc2C1=O`, 751 s. In the case of `O=C(C1COc2ccccc2O1)N1CCCC(c2nnc(-c3ccccc3F)s2)C1` (centres undefined) it was 922 s; in that of `COC(=O)CNC(=O)N1CCCCCC1c1ccc(Cl)cc1` (centres undefined), 870 s. `COc1ccc2c(c1)Cc1sc(NC(=O)c3ccc(Br)cc3)nc1-2` registered an RP-LC retention time of 1130 s.

The molecule `CCn1c(=O)sc2cc(S(=O)(=O)N3CCC(C(=O)Nc4nc(C)cs4)CC3)ccc21` showed an RP-LC retention time of 827 s. For `Cc1cc(C)c2c(N3CCSCC3)nc(C(=O)NCCN3CCCCC3)nc2n1` the value was 559 s; for `Clc1nnc(N2CCSCC2)c2ccccc12`, 845 s. In the case of `O=c1c2cnn(-c3ccc(F)cc3)c2ncn1Cc1nc(-c2ccc(Br)cc2)no1` it was 1140 s; in that of `CCOC(=O)Oc1c(OC)cc(C(=O)O[C@@H]2C[C@@H]3CN4CCc5c([nH]c6cc(OC)ccc56)[C@H]4C[C@@H]3[C@H](C(=O)OC)[C@H]2OC)cc1OC`, 935 s; in that of `O=c1c2sccc2n(Cc2nc(-c3ccc(F)cc3)no2)c(=O)n1Cc1ccccc1`, 1030 s. Molecule `O=C(NCC1CCOCC1)c1c[nH]c2ccccc12` came in with an RP-LC retention time of 636 s. `CCCCNC(=O)C1CCCN(c2nnc(C)c3c(C)n(-c4ccc(C)cc4)nc23)C1` (centres undefined) displayed an RP-LC retention time of 733 s. For `Cc1ccc(C(=O)N2CCN(c3ccc(-c4nc(C)c(C)s4)cn3)CC2)s1` the value was 891 s; for `O=C(Cn1nc(N2CCSCC2)c2ccccc2c1=O)Nc1ccc(Cl)cc1`, 979 s. Consider `Cc1ccccc1NC(=O)Cn1nc(N2CCCC(C)C2)c2ccccc2c1=O` (centres undefined), for which the RP-LC retention time was determined as 1120 s.

Molecule `O=C1CN(CCc2cccs2)C2CS(=O)(=O)CC2N1c1ccc(Cl)cc1` (centres undefined) displayed an RP-LC retention time of 790 s. For `COc1ccc2c(c1)C1(CCN(C(=O)c3ccc(Cl)cc3)C1)C(=O)N2C` (centres undefined) the value was 832 s. `CCC(C)NC(=O)CSc1nccc(N2CCN(c3cc(C)ccc3C)CC2)n1` (centres undefined) came in with an RP-LC retention time of 873 s.

In turn, `CCOC(=O)COc1cc(-c2ccc(C)cc2)nc2ccc(NC(=O)c3ccco3)cc12` yielded an RP-LC retention time of 778 s. For `CCOC(=O)N1CCN(Cc2nc(-c3ccc(N4CCC(C)CC4)nc3)no2)CC1` the value was 847 s; for `Cc1ccn2cc(C(=O)NCCC(C)C)nc2c1`, 640 s; for `COC(=O)c1ccc(NC(=O)CSc2cc(N3CCN(c4ccccc4OC)CC3)ncn2)cc1`, 970 s. In the case of `CCc1nc(N)n(CC(=O)Nc2ccc(Br)cc2)c(=O)c1C` it was 666 s; in that of `COc1cc(NC(=O)CSc2nc3nc(C)cc(C)n3n2)cc(OC)c1`, 726 s. For `CCN1CCN(CCCNC(=O)c2cc3sccc3n2C)CC1` the value was 569 s; for `Cc1c(Cl)cccc1NC(=O)NCC1CCOCC1`, 720 s; for `O=C(Cc1csc2ccccc12)N1CCN(C(=O)Nc2ccccc2Cl)CC1`, 889 s. On to `CCC1Oc2ccc(S(=O)(=O)N3CCC(C(=O)NCc4ccc(OC)cc4)CC3)cc2NC1=O` (centres undefined), for which the RP-LC retention time amounted to 839 s.

Consider `O=C(Cc1nc(-c2ccccn2)n[nH]1)Nc1cc(F)ccc1F`, for which the RP-LC retention time was determined as 652 s. Take `CCOc1ccccc1NC(=O)CSc1nccc(N2CCN(c3cc(C)ccc3C)CC2)n1`: the RP-LC retention time is 861 s. In the case of `O=C(Cc1ccsc1)N1CCCC1c1nc(-c2ccc(F)cc2F)no1` (centres undefined) it was 922 s; in that of `Fc1ccc(C(c2nnc(-c3ccccc3Cl)o2)N2CCN(c3ccccn3)CC2)cc1` (centres undefined), 774 s; in that of `CCOc1ccc(NC(=O)c2oc3ccc(CC)cc3c2C)c2cccnc12`, 837 s. For `CC(=O)Nc1onc(C)c1-c1ccc(C)c(S(=O)(=O)NCc2ccc(Br)cc2)c1` the value was 870 s; for `C#CCSc1n[nH]c(-c2ccco2)n1`, 719 s.

Regarding `CCCNC(=O)CN1C(=O)C2CCCCN2c2ccc(S(=O)(=O)N(CC)CC)cc21` (centres undefined), the RP-LC retention time is 862 s.

Molecule `O=C(c1ccco1)N1CCCC1c1nc(-c2ccccc2)no1` (centres undefined) registered an RP-LC retention time of 853 s.

As to `CCc1nncn1C1CCN(S(=O)(=O)c2cccc(Cl)c2)CC1`, the RP-LC retention time was found to be 726 s. In the case of `O=C(NC(Cc1ccccc1)c1nnc(N2CCCCC2)o1)c1ccco1` (centres undefined) it was 775 s; in that of `COc1ccc(NC(=O)N2CCc3nc(-c4ccccc4)ncc3C2)cc1OC`, 804 s.

Regarding `CCC1(C(=O)Nc2ccc(OC)c(F)c2)CCCCC(=O)N1` (centres undefined), the RP-LC retention time is 720 s. `O=c1c(Nc2ccc(F)c(Cl)c2)nc2ccncc2n1Cc1ccccc1` came in with an RP-LC retention time of 831 s. On to `C=CCNC(=O)NC1CCN(C2=NS(=O)(=O)C(c3ccc(C)cc3)=C2C)CC1`, for which the RP-LC retention time came to 736 s.

`Cc1nc(-c2ccc3c(c2)CCN3C(=O)c2nccc3ccccc23)cs1`: the RP-LC retention time came out at 1040 s.

Molecule `COc1cc(NC(=O)NC2CCN(c3cc(C)cc(C)c3)C2=O)cc(OC)c1` (centres undefined) came in with an RP-LC retention time of 818 s. `CCS(=O)(=O)c1nc2ccc(NS(=O)(=O)c3ccc4c(c3)CCCC4)cc2s1`: the RP-LC retention time is 1010 s. For `O=C(c1ccncn1)N1C[C@@H](COCC2CC2)[C@H](c2ccccn2)C1` the value was 604 s. For `O=C(NC1(c2nc(-c3ccncc3)no2)CCCCC1)c1ccccc1F` the value was 911 s. As for `CS(=O)(=O)c1ccccc1C(=O)Nc1nnc(-c2cc(Cl)sc2Cl)o1`, the RP-LC retention time stood at 735 s.
